Laboratory results reported in US20100129432A1, “MICROORGANISM-KILLING COMBINATION” (TAIPEI MEDICAL UNIVERSITY, priority 2008, published 2010).

Key:
[1] = tested on: Candida albicans; assay: Toluidine blue or Methylene Blue mediated PDI with or without 0.6% chitosan, survival fraction; conditions: for PDI effect (survival fraction): 0.5 mM photosensitizer, 630±5 nm LED 50 J/cm^2, without chitosan; for survival fraction of Candida albicans: 0.6% (w/v) chitosan added after the PDI, 50 J/cm^2
[2] = tested on: Staphylococcus aureus (BCRC 10780); assay: Rose Bengal, Methylene Blue and Chlorin e6 mediated PDI with or without chitosan, survival fraction; format: cell-based

Compound: CN(C)c1ccc2nc3ccc(=[N+](C)C)cc-3sc2c1 [MB, methylene blue]
- PDI effect (survival fraction) [1]: partially effective
- survival fraction of Candida albicans [1]: greatly reduced
- PDI effect (survival fraction) ([2]; 2 μM MB, 0 J/cm^2, without chitosan): ineffective
- PDI effect (survival fraction) ([2]; 2 μM MB, 0.025% (w/v) chitosan): significantly enhanced
- PDI effect (survival fraction) ([2]; 2 μM MB, 0.025% (w/v) chitosan, 10-20 J/cm^2): complete eradication
- PDI effect (survival fraction) ([2]; 2 μM MB, 5 J/cm^2, without chitosan): slightly effective
- PDI effect (survival fraction) ([2]; 2 μM MB, 10-20 J/cm^2, without chitosan): apparently more effective than the lower dose

Compound: O=C1OC2(c3cc(I)c(O)c(I)c3Oc3c2cc(I)c(O)c3I)c2c(Cl)c(Cl)c(Cl)c(Cl)c21 [RB, Rose Bengal]
- PDI effect (survival fraction) ([2]; 0.025 μM RB, 25 J/cm^2, 0.025% chitosan): complete removal of the bacteria
- PDI effect (survival fraction) ([2]; 0.025 μM RB, 25 J/cm^2, without chitosan): not able to result in complete eradication

Compound: Cc1cc2nc3ccc(N(C)C)cc3[s+]c2cc1N.[Cl-] [TB, toluidine blue]
- PDI effect (survival fraction) [1]: partially effective
- survival fraction of Candida albicans [1]: greatly reduced

Compound: chlorine e6 [Ce6]
- PDI effect (survival fraction) ([2]; 0.05 μM Ce6, 0.1% (w/v) chitosan, 10 J/cm^2): complete eradication
- PDI bacterial killing effect ([2]; 0.05 μM Ce6 with chitosan, concentration dependent manner (0.01-0.1 μM)): significantly enhance
